# Assays:
# [1] = system: CD45+ cells; assay: Cell viability in apheresis product by flow cytometry (CD45-PerCP and 7-AAD; % CD45+ cells); assay type: cell-based; settings: FIG. 7 lower panel; 14 mM Citrate, overnight; A23187 at 4 micromolar in DMEM media
# Protocol: Cell viability may be determined by flow cytometry using CD45-PerCP and 7-AAD.
# FIG. 7: An apheresis product is collected into 14 mM Citrate (ACD-A). […] The calcium ionophore A23187 is used at 4 micromolar in apheresis material resuspended in DMEM media. […] Determination of singlets and aggregates may be done by flow cytometry using side and forward scatter of the CD45+ cell population. Cell viability is determined as the % CD45+ cells.
# [2] = system: CD45+ cell population; assay: Singlets and aggregates in apheresis product by flow cytometry (side and forward scatter); assay type: cell-based; settings: FIG. 7 top panel; 14 mM Citrate (ACD-A), overnight, low/medium/high concentrations, compared to control with no inhibitors
# [3] = system: neutrophils; settings: cited from earlier work
# [4] = system: cell aggregates; assay: Cell aggregates in apheresis product after 24 h, glass slide under microscope; assay type: cell-based; settings: FIG. 10, 14 mM Citrate, GSK484 10 micromolar, DTPA 10 micromolar, Tirofiban 2.5 micrograms/ml
# Protocol: FIG. 9: An apheresis product is collected in 14 mM Citrate and divided into two different tubes—one with no further addition and a second tube with additional citrate for a final concentration of 28 mM (2X ACD-A). The tubes are left overnight at room temperature under rotation. After 24 h, aliquots of the tubes are spotted on a glass slide and are analyzed under the microscope for the presence of cell aggregates.
# FIG. 10: An apheresis product is collected in 14 mM Citrate (ACD-A) and aliquots are taken and incubated with the different inhibitors, or in combination, in different tubes for 24 h. The tubes are left under rotation at room temperature. After 24 h, aliquots of the different tubes are spotted on a glass slide and are analyzed under a microscope for the presence of cell aggregates.
# [5] = system: cultured cells; settings: at micromolar concentrations; cited from earlier work
# [6] = system: granulocytes; settings: incubation; cited from earlier work
smiles,measurement,setting,value
CNc1ccc2oc(C[C@H]3O[C@@]4(CC[C@H]3C)O[C@H]([C@H](C)C(=O)c3ccc[nH]3)[C@H](C)C[C@H]4C)nc2c1C(=O)O [A23187],viability (% CD45+ cells),[1],affect viability
S=C=Nc1cccc(NC(=S)NCCCCNC(=S)Nc2cccc(N=C=S)c2)c1 [MRS2578],aggregation (singlets %),[2],inhibit aggregation in a dose dependent manner
CCCCC(CC)CNC(=N)NC(=N)NCCCCCCNC(=N)NC(=N)NCC(CC)CCCC (stereo not drawn) [Alexidine],NETosis after 2 h of incubation,[3]; after 2 h of incubation,induces NETosis
same,NET formation induced by ionomycin,[3]; in neutrophils,inhibits NET formation
same,basal level of netosis,[3]; without an increase of cytosolic calcium,inhibits the basal level of netosis
"CCCCS(=O)(=O)N[C@@H](Cc1ccc(OCCCCC2CCNCC2)cc1)C(=O)O [Tirofiban, tirofiban]",formation of cell aggregates,[4],prevents the formation of cell aggregates
COc1cc(C(=O)N2CC[C@@H](O)[C@@H](N)C2)cc2nc(-c3cc4ccccc4n3CC3CC3)n(C)c12 [GSK484],aggregation (singlets %),[2],inhibit aggregation in a dose dependent manner
"O=C(O)CN(CCN(CC(=O)O)CC(=O)O)CCN(CC(=O)O)CC(=O)O [DTPA, diethylenetriaminepentacetic acid]",apoptosis and cell death,[5],induce apoptosis and cell death
same,aggregation (singlets %),[2],very effective at all concentrations tested
C[C@@H](N)[C@H]1CC[C@H](C(=O)Nc2ccncc2)CC1 [Y-27632],chemotaxis of granulocytes,[6],blocked the chemotaxis
same,NET formation induced by PMA and other challenges,[3]; pre-treatment,inhibits NET formation
"c1ccc(CN(CCN(Cc2ccccn2)Cc2ccccn2)Cc2ccccn2)nc1 [TPEN, N,N,N′, N′-tetrakis(2-pyridylmethyl)ethylenediamine]",apoptosis and cell death,[5],induce apoptosis and cell death

# — patent US20230058634A1, “PREVENTION OF PLATELET ACTIVATION AND CELL DIFFERENTIATION DURING THE PROCESSING OF BLOOD AND BLOOD-RELATED COMPOSITIONS” (GPB Scientific, Inc., priority 2020, published 2023)
